Read-outs that look alike come from different tables or passages of the source.

One series relates to HepG2 cells. Put plainly: multi-parametric cytotoxicity assay (HCS). The format is cell-based, human. As for the experimental part: assessment/genetic-toxicology/regulatory-assays.html). Briefly, the numbers of revertant colonies for each of five histidine-requiring strains of Salmonella […]
different classes of genetically active compounds, were evaluated either in the presence or absence of metabolic activation by Aroclor 1254-induced rat liver post-mitochondrial S9 fraction (Supplementary Figure 2B). DTP3 was tested at the […]
expressed as the mean fold increase in colony number for each tester strain upon exposure to DTP3 or strain-specific control compounds (CTR) relative to exposure to vehicle control, either in the presence or absence of metabolic activation (Supplementary Figure 2C). The following significance thresholds were applied to each strain: ≥1.5 folds, strain TA102; ≥2-fold, strains TA98 and TA100; ≥3-fold, […]
(http://www.cyprotex.com/toxicology/multiparametric/cytotoxicity-screening-panel), using High Content Screening (HCS). […]
were treated with a specific dye or antibody, as required by the assay. Plates were then scanned using an ArrayScan VTI automated fluorescence cell imager (Thermo Scientific Cellomics) and analysed for the following measures of toxicity: nuclear size and nuclear morphology, cell membrane permeability, mitochondrial mass, mitochondrial membrane potential (DYm), and cytochrome c release (Figure 2). […]
each compound, cytotoxicity was scored by assessing the minimum effective concentration (MEC) inducing a significant effect relative to vehicle control. […]
and positive controls, respectively. Briefly, upon formation of a stable Gigaohm (GΩ) seal between patch electrodes and individual hERG-expressing HEK-293 cells, hERG-dependent outward tail currents were measured following depolarisation of the cell membrane to […] for 2 s (activation of channels) from a holding potential of - 80 mV, and following subsequent repolarisation to -40 mV, for 3 s. […]
. Electrophysiological measurements were recorded using PatchMaster software (Version v2x73_2). […] The amount of current block was calculated as the percentage of control current. […]

Series [1] has as its system Sigma receptors (non-selective). Kind of series: Sigma receptor functional assay (agonistic/antagonistic effect). The format is biochemical. An excerpt: SUPPLEMENTARY FIGURE LEGENDS
Supplementary Figure 1 – Related to Figure 1. […]
Values represent the mean
percentage of variation of the response to the reference Sigma-receptor ligand in the
in the absence of any other agents. […]

The target in the next series is CYP2C8 (Homo sapiens, UniProt P10632). Conditions: read-out: CYP2C8 IC50.
CYP2C8, sequence (P10632 whole entry): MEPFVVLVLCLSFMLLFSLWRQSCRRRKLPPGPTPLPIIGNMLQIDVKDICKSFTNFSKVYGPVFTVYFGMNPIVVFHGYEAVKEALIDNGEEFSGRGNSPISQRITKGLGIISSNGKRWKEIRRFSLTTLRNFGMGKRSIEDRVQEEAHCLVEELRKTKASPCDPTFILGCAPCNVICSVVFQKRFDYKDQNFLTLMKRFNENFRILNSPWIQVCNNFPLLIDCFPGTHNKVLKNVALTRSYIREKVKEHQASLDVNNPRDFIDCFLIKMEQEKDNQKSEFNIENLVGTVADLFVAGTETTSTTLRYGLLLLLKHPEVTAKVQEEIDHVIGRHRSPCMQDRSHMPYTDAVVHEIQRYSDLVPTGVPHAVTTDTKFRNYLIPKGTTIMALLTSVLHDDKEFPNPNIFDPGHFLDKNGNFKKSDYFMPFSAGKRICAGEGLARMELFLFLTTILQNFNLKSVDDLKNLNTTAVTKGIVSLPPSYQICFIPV
The conditions of series [2]: rat plasma.
Procedure: Pooled plasma and faeces samples were prepared for metabolite profiling and
identification by sequential extraction with acetonitrile. Pooled urine samples were
centrifuged to remove particulate material. For each sample, metabolite profiles
were generated using radio-HPLC. On-line radio-detection was used for urine and
faeces, whereas off-line radio-detection was used for plasma, due to the low
radioactivity levels present in plasma samples. Selected samples were further
analysed by high resolution LC-MS(/MS) in order to characterise the most notable
Results were expressed as the mean of the indicated number of samples. The
statistical error was calculated as either standard deviation (SD) or standard error of
the mean (SEM), as indicated, according to the typology of the experiments.

Source text for CYP2C8: investigated in vitro, using time-dependent inhibition and catalytic induction assays
conducted at Cyprotex laboratories in accordance with in-house SOP

Take `CN(C)CCCN1c2ccccc2Sc2ccc(Cl)cc21` [Chlorpromazine, chlorpromazine]: in the series with HepG2 cells, the “MEC Cell membrane permeability” value is 1.12 µM. Further, in the series on HepG2 cells (human, 72 h), the “MEC Cytochrome C release” value came out at 1.30 µM and the “MEC Mitochondrial membrane potential” value turned out to be 4.70 µM.

`C[C@@H]1CN(CCCn2c3ccccc3c3ccccc32)C[C@H](C)N1` [Rimcazole, rimcazole]: the “Antagonistic Effect, Response” value in series [1] ([Drug] 1.0E-0.5 M) is reported as -6 % of ligand binding; in series [1] ([Drug] 1.0E-0.6 M) it was 84 % of ligand binding; in series [1] ([Drug] 3.0E-0.6 M), 49 % of ligand binding.

With `Cc1ccc(C)c(OCCCC(C)(C)C(=O)O[C@@H]2O[C@H](C(=O)O)[C@@H](O)[C@H](O)[C@H]2O)c1` [gemfibrozilglucuronide], the IC50 on CYP2C8 (0 min) stood at 30.9 µM; at CYP2C8 (30 min, + NADPH), 5.84 µM; on CYP2C8 (30 min, - NADPH) it was 30.3 µM.

On to (+) SKF-10,047, for which the “Agonistic Effect, Response” value was 48 % of ligand binding in series [1] and 17 % of ligand binding in series [1] ([Drug] 1.0E-0.5 M).

methoxy-DTP3 [P7 (methoxy DTP3)]: the “radio-labelled species in plasma profile” value in series [2] (10 m) and in series [2] (1 hr) was 0.8 in each case.

One may read the IC50 as the concentration that gives 50% inhibition.

For the origin of these results see publication PMC6502747, “Preclinical toxicology and safety pharmacology of the first-in-class GADD45β/MKK7 inhibitor and clinical candidate, DTP3” (Toxicology Reports, 2019).
